Data published in ChEMBL document CHEMBL4354831, “Novel Cell-Penetrating Peptide Conjugated Proteasome Inhibitors: Anticancer and Antifungal Investigations” (J Med Chem, 2020).
In brackets after ≈: the same amount, converted by molar mass. Activity calls are given as the source filed them. The calls are words filed in the database; no cut-off is given here. Peptide text beside a SMILES is read from it.

What was measured:
HeLa [1] = assay: Induction of membrane blebbing in human HeLa cells at 2xIC50 after 12 hrs by SEM analysis; format: cell-based; details: Cell membrane
HeLa [2] = assay: Antiproliferative activity against human HeLa cells assessed as reduction in cell viability after 48 hrs by MTT assay; format: functional, cell-based
HeLa [3] = assay: Antiproliferative activity against human HeLa cells assessed as reduction in cell viability at 1000 uM after 48 hrs by MTT assay relative to control; format: functional
BE(2)-C [4] = assay: Antiproliferative activity against human BE(2)-C cells assessed as reduction in cell viability after 48 hrs by MTT assay; format: functional, cell-based
BE(2)-C [5] = assay: Antiproliferative activity against human BE(2)-C cells assessed as reduction in cell viability at 1000 uM after 48 hrs by MTT assay relative to control; format: functional
HeLa [6] = assay: Induction of pore formation in human HeLa cell membrane at 2xIC50 after 12 hrs by SEM analysis; format: cell-based
Candida albicans [7] = assay: Antifungal activity against Candida albicans SC5314 at 100 uM after 48 hrs; format: functional, organism-based
BE(2)-C [8] = assay: Induction of pore formation in human BE(2)-C cell membrane at 2xIC50 after 12 hrs by SEM analysis; format: functional, cell-based
BE(2)-C [9] = assay: Induction of membrane blebbing in human BE(2)-C cells at 2xIC50 after 12 hrs by SEM analysis; format: cell-based; details: Cell membrane
Candida albicans [10] = assay: Antifungal activity against Candida albicans SC5314 after 48 hrs; format: functional; details: SC5314, 48 h
[11] = Selectivity ratio of IC50 for antiproliferative activity against human BE(2)-C cells to IC50 for antiproliferative activity against human HeLa cells after 48 hrs by MTT assay; format: functional
20S proteasome = assay: Inhibition of human 20S proteasome using Suc-LLVY-AMC as substrate measured every 5 mins for 120 mins by fluorescence based assay; format: protein-complex assay
Candida albicans [12] = assay: Induction of hyphal disruption in Candida albicans SC5314 by SEM analysis; format: organism-based; details: Hyphae
Candida albicans [13] = assay: Induction of pore formation in Candida albicans SC5314 membrane by SEM analysis; format: organism-based; details: Cell membrane

IC50 (HeLa [2])	MIC (Candida albicans [10])	IC50 (20S proteasome)	Compound	Activity (HeLa [1])	inhibition at 1000 µM (HeLa [3])	IC50 (BE(2)-C [4])	inhibition at 1000 µM (BE(2)-C [5])	Activity (HeLa [6])	Activity (Candida albicans [7])	Activity (BE(2)-C [8])	Activity (BE(2)-C [9])	Ratio IC50 [11]	Activity (Candida albicans [12])	Activity (Candida albicans [13])
39.1 µM	> 100 µM	0.136 µM	CC(=O)N[C@@H](CC(C)C)C(=O)N[C@@H](CC(C)C)C(=O)N[C@H](C=O)CC(C)C (Ac-Leu-Leu-Leu-aldehyde)	–	–	61.3 µM	–	–	–	–	–	1.5	–	–
29.4 µM	> 100 µM	0.0064 µM	CC(=O)N[C@@H](Cc1ccc(O)cc1)C(=O)N[C@@H](CC(C)C)C(=O)N[C@@H](Cc1ccccc1)C(=O)N[C@H](C=O)CC(C)C (Ac-YLFL-aldehyde)	–	–	43.3 µM	–	–	–	–	–	1.5	–	–
–	1.56 µM (≈ 1.44 µg/mL)	–	C[C@@H]1[C@H](O)[C@@H](C)/C=C/C=C/C=C/C=C/C=C/C=C/C=C/[C@H](O[C@@H]2O[C@H](C)[C@@H](O)[C@H](N)[C@@H]2O)C[C@@H]2O[C@](O)(C[C@@H](O)C[C@@H](O)[C@H](O)CC[C@@H](O)C[C@@H](O)CC(=O)O[C@H]1C)C[C@H](O)[C@H]2C(=O)O [AMPHOTERICIN B]	–	–	–	–	–	–	–	–	–	inactive	Active

Compound	IC50 (HeLa [2])	MIC (Candida albicans [10])	IC50 (20S proteasome)	Activity (HeLa [1])	inhibition at 1000 µM (HeLa [3])	IC50 (BE(2)-C [4])	inhibition at 1000 µM (BE(2)-C [5])	Activity (HeLa [6])	Activity (Candida albicans [7])	Activity (BE(2)-C [8])	Activity (BE(2)-C [9])	Ratio IC50 [11]	Activity (Candida albicans [12])	Activity (Candida albicans [13])
CC(=O)N[C@@H](Cc1ccc(O)cc1)C(=O)NCC(=O)N[C@@H](CCCNC(=N)N)C(=O)N[C@@H](CCCCN)C(=O)N[C@@H](CCCCN)C(=O)N[C@@H](CCCNC(=N)N)C(=O)N[C@@H](CCCNC(=N)N)C(=O)N[C@@H](CCC(N)=O)C(=O)N[C@@H](CCCNC(=N)N)C(=O)N[C@@H](CCCNC(=N)N)C(=O)N[C@@H](CCCNC(=N)N)C(=O)O	62.5 µM	–	–	inactive	70%	94 µM	70%	inactive	inactive	inactive	inactive	–	–	–
